Experimental data as given in patent publication US20050266515A1, “Glyceraldehyde 3-phosphate dehydrogenase-S (GAPDHS), a glycolytic anzyme expressed only in male germ cells, is a target for male contraception” (The University of North Carolina at Chapel Hill, priority 2002, published 2005).
Read-outs that look alike come from different tables or passages of the source. One block for each compound: values may come before it.

Experiments:
Type in all cases: biochemical
[1] = molecular target: T1, truncated form of human GAPDHS (Mus musculus, UniProt Q64467); test: Inhibition of dehydrogenase activity of recombinant truncated GAPDHS (NADH accumulation at 340 nm);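 further: recombinant enzyme (1 µg) in glycine–phosphate–EDTA buffer pH 8.9, inhibitors tested from 1 µM to 3 mM, activity relative to DMSO-only controls taken as 100%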
T1 construct: tGapdhs, amino acids 106-438; made in house; host or cells: E. coli K-12 strain DS112 (gapA-deficient)

[2] = system: truncated form of human GAPDHS; test: as above; conditions: comparison of IC50 values of Tables 7, 9 and 11
recombinant human GAPDH = molecular target: T2, recombinant human GAPDH (Mus musculus, UniProt P16858); test: Inhibition of dehydrogenase activity of recombinant somatic GAPDH (NADH accumulation at 340 nm); conditions: 1 hour preincubation at 4° C., 0.5 mM NAD, 0.5 mM glyceraldehyde-3-phosphate
T2 construct: made in house; host or cells: E. coli K-12 strain DS112 (gapA-deficient)
From the text: In subsequent studies to test inhibitors identified in computer docking studies, recombinant mouse Gapdh and the truncated form of Gapdhs (tGapdhs, amino acids 106-438) were expressed in DS112 gapA-deficient E. coli strain K-12 (available from the Yale University E. coli Genetics Stock Center, New Haven, Conn., United States of America). The truncated Gapdhs lacks the proline-rich N-terminus, but contains all the amino acids required for enzyme activity. The recombinant proteins were purified and activities were determined with a standard enzyme assay (Schmalhausen et al., 1997). Using this assay, the dehydrogenase activity of Gapdh and tGapdhs was monitored at 340 nm by measuring the accumulation of NADH.
The reaction mixture (200 μl) contained 50 mM glycine, 50 mM potassium phosphate, 5 mM EDTA (pH 8.9), 1 μg of recombinant enzyme (Gapdh or tGapdhs), 0.5 mM NAD, and 0.5 mM glyceraldehyde-3-phosphate. Activities of Gapdh and tGapdh were compared in the presence of various concentrations of inhibitors. Compounds identified as potential inhibitors in modeling studies as described herein were obtained from Ryan Scientific (Mt. Pleasant, S.C., United States of America). Stocks for each compound were prepared by dissolving 5 mg in 50 μl of DMSO. These stocks were divided into 10 μl aliquots and frozen at −20° C.
To monitor inhibition, each compound (1 μM to 3 mM) was added to the above reaction mixture (without NAD and glyceraldehyde-3-phosphate) and incubated for 1 hour at 4° C. After the 1 hour incubation period, NAD and glyceraldehyde-3-phosphate were added to start the reaction. In each assay, controls containing equal amounts of DMSO were included to determine values for 100% activity. The IC50 for each compound was calculated as the concentration required to reduce dehydrogenase activity to 50% of the activity of control samples.

Recombinant mouse Gapdh = molecular target: T3, Recombinant mouse Gapdh (Mus musculus, UniProt P16858); test: Inhibition of recombinant Gapdh by adenine nucleotides (NAD reduction at 340 nm, 96-well format); conditions: for inhibition of Gapdhs (the other recombinant enzyme beside tGapdhs): result in words
T3 construct: GST (cleaved yes); made in house

[3] = molecular target: T4, truncated Gapdhs (tGapdhs; amino acids 106-438 of mouse Gapdhs) (Mus musculus, UniProt Q64467); test: Inhibition of recombinant tGapdhs by adenine nucleotides (NAD reduction at 340 nm, 96-well format); conditions: for inhibition of tGapdhs: recombinant enzyme, result in words
T4 construct: containing amino acids 106-438 of mouse Gapdhs; GST (cleaved yes); made in house

[4] = Table 7, 1 hour preincubation at 4° C., 0.5 mM NAD, 0.5 mM glyceraldehyde-3-phosphate, read-out: IC50 GAPDHS
[5] = Table 9, 1 hour preincubation at 4° C., 0.5 mM NAD, 0.5 mM glyceraldehyde-3-phosphate, read-out: IC50 GAPDHS
[6] = competitive inhibitors of NAD cofactor binding, read-out: calculated Ki for Gapdh
[7] = competitive inhibitors of NAD cofactor binding, read-out: calculated Ki for tGapdhs
[8] = Table 11, 1 hour preincubation at 4° C., 0.5 mM NAD, 0.5 mM glyceraldehyde-3-phosphate, read-out: IC50 GAPDHS

T4 sequence (Q64467 108-440): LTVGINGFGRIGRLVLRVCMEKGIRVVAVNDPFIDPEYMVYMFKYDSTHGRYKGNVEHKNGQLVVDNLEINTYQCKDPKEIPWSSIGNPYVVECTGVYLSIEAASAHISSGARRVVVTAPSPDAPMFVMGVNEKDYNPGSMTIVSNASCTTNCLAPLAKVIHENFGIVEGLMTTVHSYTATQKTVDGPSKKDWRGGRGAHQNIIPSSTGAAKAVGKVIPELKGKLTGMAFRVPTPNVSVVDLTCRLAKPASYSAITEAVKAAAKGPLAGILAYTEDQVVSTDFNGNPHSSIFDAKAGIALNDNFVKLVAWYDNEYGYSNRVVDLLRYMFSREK
T1 sequence (Q64467 108-440): as above
T2 sequence (P16858 whole entry): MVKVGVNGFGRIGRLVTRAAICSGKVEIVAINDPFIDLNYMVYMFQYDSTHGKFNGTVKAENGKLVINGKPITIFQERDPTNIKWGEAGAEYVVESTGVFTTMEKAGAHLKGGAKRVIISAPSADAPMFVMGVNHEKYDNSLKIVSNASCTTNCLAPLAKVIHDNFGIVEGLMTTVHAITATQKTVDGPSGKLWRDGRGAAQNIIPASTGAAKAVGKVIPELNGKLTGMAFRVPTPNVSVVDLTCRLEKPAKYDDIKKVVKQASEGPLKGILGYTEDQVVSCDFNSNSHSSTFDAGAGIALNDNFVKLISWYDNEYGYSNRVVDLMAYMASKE
T3 sequence (P16858 whole entry): as above

Compound: CC1=NN(C(N)=N[N+](=O)[O-])C(=O)C1 [LT_00249157, 3-methyl-5-oxo-pyrazole-1-nitro-carboxamidine]
IC50 [1, 4]: 0.1 mM
selective inhibition: Gapdhs compared to Gapdh [2]: greater inhibition of Gapdhs than Gapdh

Compound: OCc1nc2ccccc2[nH]1 [Compound T0504_1251, (1H-Benzoimidazol-2-yl)-methanol]
IC50 [1, 4]: > 3 mM

Compound: Clc1ccc(N=c2ssnc2Cl)c(Cl)c1 [Compound 11K_064, 2,4-dichloro-N-(4chloro-5H-1,2,3-dithiazol-5-yliden)aniline]
IC50 (recombinant human GAPDH; Table 7): 0.1 mM
IC50 [1, 4]: 0.5 mM

Compound: Cc1ccc(S(=O)(=O)c2c(N)n(CC(O)c3ccc([N+](=O)[O-])cc3)c3nc4ccccc4nc23)cc1 (stereo not drawn) [Compound T0501_7749, 2-[2-Amino-3-(toluene-4-sulfonyl)-pyrrolo[2,3-b]quinoxalin-1-yl]-1-(4-nitro-phenyl)-ethanol]
IC50 (recombinant human GAPDH; Table 7): > 1 mM
IC50 [1, 4]: 0.1 mM
selective inhibition: Gapdhs compared to Gapdh [2]: greater inhibition of Gapdhs than Gapdh

Compound: 3-(1H-Imidazolo-4-yl)-2-[3-(4-sulfamoyl-benzyl)-thioureido]-propionic acid [LT_00729760]
IC50 [1, 5]: 2 mM

Compound: Nc1ncnc2c1ncn2[C@@H]1O[C@H](COP(=O)(O)OP(=O)(O)O)[C@@H](O)[C@H]1O [ADP]
Ki (Recombinant mouse Gapdh; [6]): 1.79 mM
inhibition of Gapdhs (the other recombinant enzyme beside tGapdhs) (Recombinant mouse Gapdh): dose-dependent inhibition
Ki [3, 7]: 3.97 mM
inhibition of tGapdhs [3]: dose-dependent inhibition

Compound: Nc1ncnc2c1ncn2[C@@H]1O[C@@H]2COP(=O)(O)O[C@H]2[C@H]1O [cAMP, cyclic AMP]
Ki (Recombinant mouse Gapdh): 1.5 mM
inhibition of Gapdhs (the other recombinant enzyme beside tGapdhs) (Recombinant mouse Gapdh): dose-dependent inhibition
Ki [3]: 3.33 mM
inhibition of tGapdhs [3]: dose-dependent inhibition

Compound: C=CC(=O)NCNC(=O)C=C [LT_00050115, N-(Acryloylamino-methyl)-acrylamide]
IC50 (recombinant human GAPDH; Table 11): > 1 mM
IC50 [1]: > 1 mM

Compound: 4-Amino-N-(4-methoxy-phenyl)-3-nitro-benzenesulfonamide-cyclohexyl-urea [Compound T0506_9350]
IC50 (recombinant human GAPDH; Table 9): > 1 mM

Compound: Nc1ncnc2c1ncn2[C@@H]1O[C@H](COP(=O)(O)O)[C@@H](O)[C@H]1O [AMP]
Ki (Recombinant mouse Gapdh; [6]): 1.61 mM
inhibition of Gapdhs (the other recombinant enzyme beside tGapdhs) (Recombinant mouse Gapdh): dose-dependent inhibition
Ki [3, 7]: 3.13 mM
inhibition of tGapdhs [3]: dose-dependent inhibition

Compound: C=Cn1cncc1C(=O)C(F)(F)F [Compound T0507_5482, 2,2,2-Trifluoro-1-(3vinyl-3H-imidazol-4-yl)-ethanone]
IC50 (recombinant human GAPDH; Table 7): > 1 mM
IC50 [1, 4]: > 1 mM

Compound: O=[N+]([O-])c1ccc2oc3ccccc3c2c1 [Compound T0515_4928, 2-Nitro-dibenzofuran]
IC50 [1, 8]: 0.1 mM
selective inhibition: Gapdhs compared to Gapdh [2]: greater inhibition of Gapdhs than Gapdh

Compound: O=C(COC(=O)CCc1c[nH]c2ccccc12)Nc1ccc(S(=O)(=O)N2CCOCC2)cc1 [Compound T0511_4909, 3-(1H-Indol-3-yl)-propionic acid [4-(morpholine-4-sulfonyl)-phenylcaramoyl]-methyl ester]
IC50 (recombinant human GAPDH; Table 7): > 1 mM
IC50 [1, 4]: 0.5 mM
selective inhibition: Gapdhs compared to Gapdh [2]: greater inhibition of Gapdhs than Gapdh

Compound: Nc1ncnc2c1ncn2[C@@H]1O[C@H](COP(=O)(O)OP(=O)(O)OP(=O)(O)O)[C@@H](O)[C@H]1O [ATP, adenosine triphosphate]
Ki (Recombinant mouse Gapdh; [6]): 1.27 mM
inhibition of Gapdhs (the other recombinant enzyme beside tGapdhs) (Recombinant mouse Gapdh): dose-dependent inhibition
Ki [3, 7]: 6.48 mM

Compound: O=C(NNc1ccc(S(=O)(=O)Nc2ccccc2)cc1[N+](=O)[O-])Nc1cccc(C(F)(F)F)c1 [Compound T0506_1274, 2-[4-(anilinosulfonyl)-2-nitrophenyl]-N-[3-(trifluoromethyl)phenyl]hydrazinecarboxamide]
IC50 [1, 5]: 1.75 mM

Compound: 4-(1-Benzyl-IH-indol-3y1)-3,4-dihydro-benzo[4,5]imidazo[1,2-a][1,3,5]triazin-2-ylamine [Compound T0501_7933]
IC50 (recombinant human GAPDH; Table 9): > 0.5 mM
IC50 [1, 5]: 0.01 to 0.025 mM
selective inhibition: Gapdhs compared to Gapdh [2]: greater inhibition of Gapdhs than Gapdh

Compound: O=c1ccn([C@@H]2O[C@H](COP(=O)(O)OP(=O)(O)OP(=O)(O)O)[C@@H](O)[C@H]2O)c(=O)[nH]1 [UTP]
inhibition of Gapdhs (the other recombinant enzyme beside tGapdhs) (Recombinant mouse Gapdh): did not inhibit
inhibition of tGapdhs [3]: did not inhibit

The next lines start with the values.

inhibition of Gapdhs (the other recombinant enzyme beside tGapdhs) (Recombinant mouse Gapdh): did not inhibit
inhibition of tGapdhs [3]: did not inhibit
Compound: Nc1ncnc2c1ncn2[C@@H]1O[C@H](CO)[C@@H](O)[C@H]1O [adenosine]

IC50 [1, 5]: > 1 mM
Compound: O=C(CN1C(=O)c2ccccc2C1=O)Nc1cc(C(=O)O)cc(C(=O)O)c1 [LT_00379844, 5-[2-(1,3-Dioxo-1,3-dihydro-isoindol-2-yl)-acetylamino]-isophthalic acid]

IC50 GAPDHS ([1]; Table 9, 1 hour preincubation at 4° C., 0.5 mM NAD, 0.5 mM glyceraldehyde-3-phosphate): not soluble
Compound: COc1cc(C=NNc2ccc([N+](=O)[O-])cc2[N+](=O)[O-])ccc1OCC(=O)Nc1ccc(C)c(C)c1 [LT_01178124, N-(3,4-Dimethyl-phenyl)-2-{4-[(2,4-dinitro-phenyl)-hydrazonomethyl]-2-methoxy}-acetamide]

IC50 [1, 5]: 2 mM
Compound: Nc1nonc1-c1nc2ccccc2n1CC(=O)N/N=C\c1cc2c(cc1[N+](=O)[O-])OCO2 [LT_00237350, [2-(4-Aminofurazan-3-yl)-benzoimidazol-1-yl]-acetic acid [1-(6-nitro-benzo[1,3]dioxol-5-yl)-meth-(Z)ylidene]-hydrazide]

IC50 [1, 5]: 5 mM
Compound: CC(CC(=O)Nc1ccc(Cl)c(Cl)c1)=NNC(=O)c1cc2ccccc2cc1O [LT_00587256, N-(3,4-Dichloro-phenyl)-3-[(3-hydroxy-naphthalene-2-carbonyl)-hyrazono]-butyramide]

IC50 (recombinant human GAPDH; Table 9): 0.15 mM
IC50 [1, 5]: 0.15 mM
Compound: COc1cc(C=NNC(=O)Cn2cnc3c(=O)n(C)c(=O)n(C)c32)cc([N+](=O)[O-])c1O [LT_00444480, (1,3-Dimethyl-2,6-dioxo-1,2,3,6-tetrahydro-purin-9-yl)-acetic acid (4-hydroxy-3-methoxy-5-nitro-benzylidene)-hydrazide]

IC50 (recombinant human GAPDH; Table 11): > 1 mM
IC50 [1, 8]: > 1 mM
Compound: CNc1cc([N+](=O)[O-])ccc1OC [Compound T0512_4753, (2-Methoxy-5-nitro-phenyl)-methyl-amine]

IC50 (recombinant human GAPDH; Table 9): > 1 mM
IC50 [1, 5]: > 1 mM
Compound: CCOC(=O)Cc1nnc2c(Nc3ccc(OC)cc3)nc3nonc3n12 [LT00105955, [5-(4-Methoxy-phenylamino)-2-oxa-1,3,4,6,7,8a-hexaaza-as-indacen-8-yl]-acetic acid ethyl ester]

IC50 (recombinant human GAPDH; Table 7): 0.35 mM
IC50 [1, 4]: > 1 mM
Compound: CN(C)c1ccc(C(CC(=O)c2c(O)c3ccccc3n(C)c2=O)NCc2ccncc2)cc1 (stereo not drawn) [LT_00232244, 3-{3-(4-Dimethylamino-phenyl)-3-[(pyridine-4-ylmethyl)-amino]-propionyl}-4-hydroxy-1-methyl-1H-quinolin-2-one]
